Source: patent publication US20060089395A1, “Nf-kb activation inhibitors” (priority 2002, published 2006)
Like-named read-outs stand apart in the source and are kept apart here.

What was measured:
Type in all cases: cell-based, human
IL-8 = assay: Inhibition of IL-8 production by TNFα stimulation in synovial fibroblasts derived from a rheumatoid patient (ELISA); settings: Homo sapiens, Fibroblast; for IC50: synovial fibroblasts, read-out: Inhibition against Mediator Release IC50(nM) IL-8; for inhibition at 1 µM: 1000 nM, in parentheses, read-out: Inhibitory ratios (%) at 1000 nM, IL-8
Protocol: (§1) Synovial fibroblasts (Human Synoviocyte (RA-Positive), Toyobo, T4040-05) were cultured for 3 days in a medium containing 10 ng/ml of TNFα and a test compound. IL-6 and IL-8 in the supernatant were measured by the ELISA method, and PGE2 (prostaglandin E2) was measured by the EIA method.

NF-κ B = assay: Inhibitory activity of NF-κ B activation, luciferase reporter assay in HepG2 under TNF-α stimulation; settings: for inhibition at 1 µg/mL / inhibition at 10 µg/mL / inhibition at 0.1 µg/mL: Homo sapiens; for inhibition at 0.1 µg/mL: 0.1 μg/ml, read-out: Inhibitory Ratio of NF-κB Activation (%) 0.1 μg/ml
Procedure, shortened: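 HepG2 cells transiently transfected with a luciferase reporter driven by five tandem NF-κB binding sites, then incubated 6–24 h. Stimulated with TNF-α (40 ng/ml) with or without test compound for 4 h. Intracellular luciferase read by chemiluminescence; inhibition expressed relative to activity without compound.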

IL-6 = assay: Inhibition of IL-6 production by TNFα stimulation in synovial fibroblasts derived from a rheumatoid patient (ELISA); settings: for IC50: synovial fibroblasts, read-out: Inhibition against Mediator Release IC50(nM) IL-6; for Inhibitory ratios (%) at 1000 nM, IL-6: in parentheses
Protocol: as §1

PGE2 = assay: Inhibition of PGE2 production by TNFα stimulation in synovial fibroblasts derived from a rheumatoid patient (EIA); settings: for IC50: synovial fibroblasts, read-out: Inhibition against Mediator Release IC50(nM) PGE2; for Inhibitory ratios (%) at 1000 nM, PGE2: in parentheses
Protocol: as §1

[1] = 1 μg/mL, HepG2, TNF-α (40 ng/ml), 4 hours, read-out: Inhibitory Ratio of NF-κ B Activation(%) Drug Concentration 1 μg/mL
[2] = 10 μg/mL, HepG2, TNF-α (40 ng/ml), 4 hours, read-out: Inhibitory Ratio of NF-κ B Activation(%) Drug Concentration 10 μg/mL
[3] = 1 μg/mL, HepG2, TNF-α (40 ng/ml), 4 hours
[4] = 10 μg/mL, HepG2, TNF-α (40 ng/ml), 4 hours
[5] = comparison compounds, TNFα stimulation
[6] = Homo sapiens, Fibroblast, comparison compounds, TNFα stimulation
[7] = HepG2, 4 h, comparison table, reporter assay
[8] = HepG2, 4 h, 1 μg/ml, comparison table, reporter assay, read-out: Inhibitory Ratio of NF-κB Activation (%) 1 μg/ml
[9] = HepG2, 4 h, 10 μg/ml, comparison table, reporter assay, read-out: Inhibitory Ratio of NF-κB Activation (%) 10 μg/ml

O=C(Nc1cc(C(F)(F)F)cc(C(F)(F)F)c1)c1cc(C#Cc2ccccc2)ccc1O [Compound No. 22, N-[3,5-bis(trifluoromethyl)phenyl]-2-hydroxy-5-(phenylethynyl)-benzamide]
IC50 (IL-8; 72 h, 10 ng/ml TNFα, 3 days): 869 nM
inhibition at 1 µg/mL (NF-κ B; [1]): 83.9%
inhibition at 10 µg/mL (NF-κ B; [2]): 97.1%
IC50 (IL-6; Homo sapiens, Fibroblast, 72 h, 10 ng/ml TNFα, 3 days): 665 nM

O=C(Nc1cc(C(F)(F)F)cc(C(F)(F)F)c1)c1cc(CCc2ccccc2)ccc1O [Compound No. 24]
Inhibitory Ratio of NF-κ B Activation(%) Drug Concentration 1 μg/mL (NF-κ B; [3]): 92.3%
Inhibitory Ratio of NF-κ B Activation(%) Drug Concentration 10 μg/mL (NF-κ B; [4]): 98.3%
IC50 (IL-6; 10 ng/ml TNFα, 3 days): 593 nM

O=C(Nc1cc(C(F)(F)F)cc(C(F)(F)F)c1)c1cc(C(F)(F)F)ccc1O [Compound No. 25]
Inhibitory Ratio of NF-κ B Activation(%) Drug Concentration 1 μg/mL (NF-κ B; [3]): 96.4%
Inhibitory Ratio of NF-κ B Activation(%) Drug Concentration 10 μg/mL (NF-κ B; [4]): 99.6%
IC50 (IL-6; 10 ng/ml TNFα, 3 days): 452 nM

O=C(Nc1cc(Br)cc(C(F)(F)F)c1)c1cc(Br)ccc1O [Compound No. 86]
IC50 (PGE2; 10 ng/ml TNFα, 3 days): 562 nM
Inhibitory Ratio of NF-κ B Activation(%) Drug Concentration 1 μg/mL (NF-κ B; [3]): 96.7%
Inhibitory Ratio of NF-κ B Activation(%) Drug Concentration 10 μg/mL (NF-κ B; [4]): 98.7%
IC50 (IL-6; 10 ng/ml TNFα, 3 days): 565 nM

COc1ccc(C(F)(F)F)cc1NC(=O)c1cc(Br)ccc1O [Compound No. 94]
IC50 (PGE2; 10 ng/ml TNFα, 3 days): 266 nM
Inhibitory Ratio of NF-κ B Activation(%) Drug Concentration 1 μg/mL (NF-κ B; [3]): 76.6%
Inhibitory Ratio of NF-κ B Activation(%) Drug Concentration 10 μg/mL (NF-κ B; [4]): 93.4%

O=C(Nc1cc(Cl)cc(Cl)c1)c1cc(Cl)ccc1O [Compound No. 125]
IC50 (PGE2; 10 ng/ml TNFα, 3 days): 966 nM
Inhibitory Ratio of NF-κ B Activation(%) Drug Concentration 1 μg/mL (NF-κ B; [3]): 84.5%
Inhibitory Ratio of NF-κ B Activation(%) Drug Concentration 10 μg/mL (NF-κ B; [4]): 96.8%
IC50 (IL-6; 10 ng/ml TNFα, 3 days): 903 nM

O=C(Nc1nc(C(F)(F)F)c(Br)s1)c1cc(Br)ccc1O [Compound No. 187]
IC50 (PGE2; 10 ng/ml TNFα, 3 days): 414 nM
Inhibitory Ratio of NF-κ B Activation(%) Drug Concentration 1 μg/mL (NF-κ B; [3]): 85.3%
Inhibitory Ratio of NF-κ B Activation(%) Drug Concentration 10 μg/mL (NF-κ B; [4]): 94.4%
IC50 (IL-6; 10 ng/ml TNFα, 3 days): 649 nM

O=C(Nc1nc(-c2c(F)c(F)c(F)c(F)c2F)cs1)c1cc(Cl)ccc1O [Compound No. 266, 5-Chloro-2-hydroxy-N-[4-(2,3,4,5,6-pentafluorophenyl)thiazol-2-yl]benzamide]
inhibition at 1 µg/mL (NF-κ B; [1]): > 99.9%

O=C(Nc1ccc(C(F)(F)F)cc1C(F)(F)F)c1cc(Cl)ccc1O [Reference Example 1, N-[2,4-bis(trifluoromethyl)phenyl]-5-chloro-2-hydroxybenzamide, reference compound]
inhibition at 1 µM (IL-8; 72 h): -70%
IC50 (IL-8; [5]): > 1000 nM
Inhibitory ratios (%) at 1000 nM, PGE2 (PGE2): 1.2%
IC50 (PGE2; [6]): > 1000 nM
IC50 (IL-6; [6]): 202 nM

O=C(Nc1ccccc1C(F)(F)F)c1cc(Cl)ccc1O [Reference Example 2, N-[2-(trifluoromethyl)phenyl]-5-chloro-2-hydroxybenzamide, reference compound]
inhibition at 1 µM (IL-8; 72 h): 14%
IC50 (IL-8; [5]): > 1000 nM
IC50 (PGE2; [6]): 676 nM
IC50 (IL-6; [6]): 887 nM

O=C(Nc1ccc(Cl)cc1C(F)(F)F)c1cc(Cl)ccc1O [Reference Example 3, N-[4-chloro-2-(trifluoromethyl)phenyl]-5-chloro-2-hydroxybenzamide, reference compound]
inhibition at 1 µM (IL-8; 72 h): -43%
IC50 (IL-8; [5]): > 1000 nM
Inhibitory ratios (%) at 1000 nM, PGE2 (PGE2): 20%
IC50 (PGE2; [6]): > 1000 nM
Inhibitory ratios (%) at 1000 nM, IL-6 (IL-6): −17%
IC50 (IL-6; [6]): > 1000 nM

O=C(Nc1cccc(C(F)(F)F)c1)c1cc(Br)ccc1O [Reference Example 4, N-[3-(trifluoromethyl)phenyl]-5-bromo-2-hydroxybenzamide, reference compound]
inhibition at 1 µM (IL-8; 72 h): 16%
IC50 (IL-8; [5]): > 1000 nM
IC50 (PGE2; [6]): 413 nM
IC50 (IL-6; [6]): 690 nM

O=C(Nc1ccc(Cl)c(C(F)(F)F)c1)c1cc(Br)ccc1O [Reference Example 5, N-[4-chloro-3-(trifluoromethyl)phenyl]-5-bromo-2-hydroxybenzamide, reference compound]
inhibition at 1 µM (IL-8; 72 h): 16%
IC50 (IL-8; [5]): > 1000 nM
IC50 (PGE2; [6]): 57 nM
IC50 (IL-6; [6]): 91 nM

O=C(Nc1ccc(C(F)(F)F)cc1)c1cc(Cl)ccc1O [Reference Example 6, N-[4-(trifluoromethyl)phenyl]-5-chloro-2-hydroxybenzamide, reference compound]
inhibition at 1 µM (IL-8; 72 h): 4.2%
IC50 (IL-8; [5]): > 1000 nM
Inhibitory ratios (%) at 1000 nM, PGE2 (PGE2): −24%
IC50 (PGE2; [6]): > 1000 nM
Inhibitory ratios (%) at 1000 nM, IL-6 (IL-6): 36%
IC50 (IL-6; [6]): > 1000 nM

CC(=O)Oc1ccccc1C(=O)Nc1cc(C(F)(F)F)cc(C(F)(F)F)c1 [compound 1, 2-acetoxy-N-[3,5-bis(trifluoromethyl)phenyl]benzamide]
inhibition at 1 µg/mL (NF-κ B; [1]): 90.9%
inhibition at 10 µg/mL (NF-κ B; [2]): 97.1%

O=C(Nc1cc(C(F)(F)F)cc(C(F)(F)F)c1)c1ccccc1O [compound 2]
Inhibitory Ratio of NF-κ B Activation(%) Drug Concentration 1 μg/mL (NF-κ B; [3]): 93.3%
Inhibitory Ratio of NF-κ B Activation(%) Drug Concentration 10 μg/mL (NF-κ B; [4]): 95.6%

O=C(Nc1cc(C(F)(F)F)cc(C(F)(F)F)c1)c1cc(F)ccc1O [compound 3]
Inhibitory Ratio of NF-κ B Activation(%) Drug Concentration 1 μg/mL (NF-κ B; [3]): 81.5%
Inhibitory Ratio of NF-κ B Activation(%) Drug Concentration 10 μg/mL (NF-κ B; [4]): 94.3%

CC(=O)Oc1ccc(Cl)cc1C(=O)Nc1cc(C(F)(F)F)cc(C(F)(F)F)c1 [compound 5]
Inhibitory Ratio of NF-κ B Activation(%) Drug Concentration 1 μg/mL (NF-κ B; [3]): 96.5%
Inhibitory Ratio of NF-κ B Activation(%) Drug Concentration 10 μg/mL (NF-κ B; [4]): 99.2%

N#Cc1ccc(O)c(C(=O)Nc2cc(C(F)(F)F)cc(C(F)(F)F)c2)c1 [compound 9, N-[3,5-Bis(trifluoromethyl)phenyl]-5-cyano-2-hydroxybenzamide]
inhibition at 1 µg/mL (NF-κ B; [1]): 92.2%
inhibition at 10 µg/mL (NF-κ B; [2]): 99.6%

Cc1ccc(O)c(C(=O)Nc2cc(C(F)(F)F)cc(C(F)(F)F)c2)c1 [compound 10]
Inhibitory Ratio of NF-κ B Activation(%) Drug Concentration 1 μg/mL (NF-κ B; [3]): 95.8%
Inhibitory Ratio of NF-κ B Activation(%) Drug Concentration 10 μg/mL (NF-κ B; [4]): 99.4%

Cc1ccc(C(F)(F)F)cc1NC(=O)c1cc(Cl)ccc1O [compound 92]
Inhibitory Ratio of NF-κ B Activation(%) Drug Concentration 1 μg/mL (NF-κ B; [3]): 93.8%
Inhibitory Ratio of NF-κ B Activation(%) Drug Concentration 10 μg/mL (NF-κ B; [4]): 97.9%

Cc1ccc(C(=O)C(C)(C)C)cc1NC(=O)c1cc(Cl)ccc1O [compound 166]
Inhibitory Ratio of NF-κ B Activation(%) Drug Concentration 1 μg/mL (NF-κ B; [3]): 94.1%
Inhibitory Ratio of NF-κ B Activation(%) Drug Concentration 10 μg/mL (NF-κ B; [4]): 96.4%

O=C(Nc1ccc(Cl)nc1)c1cc(Cl)ccc1O [compound 240]
Inhibitory Ratio of NF-κ B Activation(%) Drug Concentration 1 μg/mL (NF-κ B; [3]): 14.3%
Inhibitory Ratio of NF-κ B Activation(%) Drug Concentration 10 μg/mL (NF-κ B; [4]): 92.3%

O=C(Nc1ccc(Cl)c(Cl)c1)c1cc(Br)ccc1O [drawing 558, reference compound]
inhibition at 0.1 µg/mL (NF-κ B; [7]): 6.8%
inhibition at 1 µg/mL (NF-κ B; [8]): 88.7%
inhibition at 10 µg/mL (NF-κ B; [9]): 92.7%

O=C(Nc1ccc(F)cc1F)c1cc([N+](=O)[O-])ccc1O [drawing 559, reference compound]
inhibition at 0.1 µg/mL (NF-κ B; [7]): -82.9%
inhibition at 1 µg/mL (NF-κ B; [8]): -63.8%
inhibition at 10 µg/mL (NF-κ B; [9]): 86.5%

O=C(Nc1cccc(C(F)(F)F)c1)c1cc(Br)ccc1O [drawing 560, reference compound]
inhibition at 0.1 µg/mL (NF-κ B; [7]): -20.9%
inhibition at 1 µg/mL (NF-κ B; [8]): 88%
inhibition at 10 µg/mL (NF-κ B; [9]): 89.6%

O=C(Nc1ccc(C(F)(F)F)cc1)c1cc(Cl)ccc1O [drawing 561, reference compound]
inhibition at 0.1 µg/mL (NF-κ B; [7]): -35.5%
inhibition at 1 µg/mL (NF-κ B; [8]): 85.3%
inhibition at 10 µg/mL (NF-κ B; [9]): 95%

O=C(Nc1ccccc1C(F)(F)F)c1cc(Cl)ccc1O [drawing 562, reference compound]
inhibition at 0.1 µg/mL (NF-κ B; [7]): -18.4%
inhibition at 1 µg/mL (NF-κ B; [8]): 41.6%
inhibition at 10 µg/mL (NF-κ B; [9]): 92.9%
